Read-outs that look alike come from different tables or passages of the source.
Target: T1, human mAChR M4 (Homo sapiens, UniProt P08173)
T1 construct: expressed in transfected cells
T1 sequence (P08173 1-479): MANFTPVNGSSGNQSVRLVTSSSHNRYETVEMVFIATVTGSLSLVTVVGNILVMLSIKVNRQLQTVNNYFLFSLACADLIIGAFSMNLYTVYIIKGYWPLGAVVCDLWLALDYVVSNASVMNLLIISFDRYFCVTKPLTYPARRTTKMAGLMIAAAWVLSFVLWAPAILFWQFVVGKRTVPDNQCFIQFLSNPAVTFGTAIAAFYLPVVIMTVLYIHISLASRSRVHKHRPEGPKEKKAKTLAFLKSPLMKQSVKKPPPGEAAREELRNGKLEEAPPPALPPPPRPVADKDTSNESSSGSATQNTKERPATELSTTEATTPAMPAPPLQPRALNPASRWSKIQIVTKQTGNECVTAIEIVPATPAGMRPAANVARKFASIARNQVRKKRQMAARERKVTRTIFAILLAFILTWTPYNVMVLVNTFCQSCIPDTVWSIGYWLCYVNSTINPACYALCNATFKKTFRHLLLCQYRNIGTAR
Assay: mAChR M4 cell-based functional assay (calcium mobilization, CHO-K1 hM4-Gqi5 cells)
Conditions: for Emax at 30 µM: CHO-K1, % ACh maximum at 30 μM, human M4; for EC50: increase in the EC20 acetylcholine response, CHO-K1 hM4-Gqi5 cells
Outline: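 Fluorescent calcium read-out (Fluo-4 AM, FDSS, 1 Hz) in hM4-Gqi5 CHO-K1 cells, 11-point 1:3 compound series. Agonism scored on compound addition, PAM activity as increase of the 144 s EC20 acetylcholine response, antagonism as decrease of the 230 s EC80 response; four-parameter logistic fits give EC50 and Emax.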

[1] = positive allosteric modulator activity, read-out: Human M4 EC50

Compound | Emax at 30 µM | EC50 [1] | Emax (CHO-K1) | EC50 (Human M4 EC50, positive allosteric modulator activity)
Cc1cc(C(=O)N2CCC2c2ccccc2)nnc1N1CCc2ncc(N3CCCn4nccc43)cc2C1 (stereo not drawn) [Example 557, (6-(3-(6,7-dihydropyrazolo[1,5-a]pyrimidin-4(5H)-yl)-7,8-dihydro-1,6-naphthyridin-6(5H)-yl)-5-methylpyridazin-3-yl)(2-phenylazetidin-1-yl)methanone] | 91% | 166 nM |  | 
COc1ccc(-c2cnc3c(c2)CN(c2ncc(C#N)cc2C)CC3)cn1 [compound 188, 6-[3-(6-methoxy-3-pyridyl)-7,8-dihydro-5H-1,6-naphthyridin-6-yl]-5-methyl-pyridine-3-carbonitrile] | 106% | 244 nM |  | 
Cc1cc(Nc2cnc3c(c2)CN(c2ncc(C#N)cc2C)CC3)c(F)cn1 [Example 616, 6-(3-((5-fluoro-2-methylpyridin-4-yl)amino)-7,8-dihydro-1,6-naphthyridin-6(5H)-yl)-5-methylnicotinonitrile] | 95% | 4 nM |  | 
Cc1nc(Cl)c(C)c(N2CCc3ncc(Nc4cc(F)ccc4F)cc3C2)n1 [compound 88, 6-(6-chloro-2,5-dimethyl-pyrimidin-4-yl)-N-(2,5-difluorophenyl)-7,8-dihydro-5H-1,6-naphthyridin-3-amine] | 86% | 731 nM |  | 
Cc1nc(Cl)nc(N2CCc3ncc(C4CC4)cc3C2)c1C [compound 254, 6-(2-chloro-5,6-dimethylpyrimidin-4-yl)-3-cyclopropyl-5,6,7,8-tetrahydro-1,6-naphthyridine] |  |  | 95% | 70 nM
Cc1ccc(F)c(Nc2cnc3c(c2)CN(c2nnc(C#N)c(C)c2C)CC3)c1 [Example 37] | 57% | 438 nM |  | 
Cc1cc(C#N)cnc1N1CCc2ncc(-c3cn(C)nc3C)cc2C1 [compound 103, 6-[3-(1,3-dimethylpyrazol-4-yl)-7,8-dihydro-5H-1,6-naphthyridin-6-yl]-5-methyl-pyridine-3-carbonitrile] | 95% | 158 nM |  | 
COc1ccc(-c2cnc3c(c2)CN(c2nnc(C#N)c(C)c2C)CC3)cn1 [Example 299, 6-(3-(6-methoxypyridin-3-yl)-7,8-dihydro-1,6-naphthyridin-6(5H)-yl)-4,5-dimethylpyridazine-3-carbonitrile] | 64% | 178 nM |  | 
Cc1cc(C(=O)N2CC(C(F)F)C2)nnc1N1CCc2ncc(Nc3ccnn3C)cc2C1 [Example 558, (3-(difluoromethyl)azetidin-1-yl)(5-methyl-6-(3-((1-methyl-1H-pyrazol-5-yl)amino)-7,8-dihydro-1,6-naphthyridin-6(5H)-yl)pyridazin-3-yl)methanone] | 90% | 101 nM |  | 
Cc1c(C#N)nnc(N2CCc3ncc(-c4ccc(N5CC6CC5CO6)nc4)cc3C2)c1C (stereo not drawn) [Example 333, 6-(3-(6-(2-oxa-5-azabicyclo[2.2.1]heptan-5-yl)pyridin-3-yl)-7,8-dihydro-1,6-naphthyridin-6(5H)-yl)-4,5-dimethylpyridazine-3-carbonitrile] | 72% | 817 nM |  | 
Cc1nc(Cl)c(C)c(N2Cc3cc(-c4cn(C)nc4C)cnc3C(C)(C)C2)n1 [compound 238, 6-(6-chloro-2,5-dimethylpyrimidin-4-yl)-3-(1,3-dimethyl-1H-pyrazol-4-yl)-8,8-dimethyl-5,6,7,8-tetrahydro-1,6-naphthyridine] | 36% | 819 nM |  | 
Cc1cc(C(=O)N2Cc3ccncc3C2)nnc1N1CCc2ncc(N3CCCn4nccc43)cc2C1 [Example 512, (1,3-dihydro-2H-pyrrolo[3,4-c]pyridin-2-yl)(6-(3-(6,7-dihydropyrazolo[1,5-a]pyrimidin-4(5H)-yl)-7,8-dihydro-1,6-naphthyridin-6(5H)-yl)-5-methylpyridazin-3-yl)methanone] | 95% | 19 nM |  | 
Cc1nc(Cl)c(C)c(N2CCc3ncc(Nc4cccc(F)c4F)cc3C2)n1 [compound 86, 6-(6-chloro-2,5-dimethyl-pyrimidin-4-yl)-N-(2,3-difluorophenyl)-7,8-dihydro-5H-1,6-naphthyridin-3-amine] | 84% | 654 nM |  | 
Cc1cc(C#N)cnc1N1CCc2ncc(N3CCCn4nccc43)cc2C1 [Example 314, 6-(3-(6,7-dihydropyrazolo[1,5-a]pyrimidin-4(5H)-yl)-7,8-dihydro-1,6-naphthyridin-6(5H)-yl)-5-methylnicotinonitrile] | 94% | 26 nM |  | 
Cc1cc(C(=O)N2CCC2)nnc1N1CCc2ncc(-n3cccn3)cc2C1 [Example 531, (6-(3-(1H-pyrazol-1-yl)-7,8-dihydro-1,6-naphthyridin-6(5H)-yl)-5-methylpyridazin-3-yl)(azetidin-1-yl)methanone] | 83% | 241 nM |  | 
Cc1cc(C#N)nnc1N1CCc2ncc(N3CCCn4nc(C5CC5)cc43)cc2C1 [Example 419, 6-(3-(2-cyclopropyl-6,7-dihydropyrazolo[1,5-a]pyrimidin-4(5H)-yl)-7,8-dihydro-1,6-naphthyridin-6(5H)-yl)-5-methylpyridazine-3-carbonitrile] | 87% | 284 nM |  | 
Cc1cnc2c(c1)CN(c1ncc(C(=O)NCc3ccncc3C)cc1C)CC2 [Example 441, 5-methyl-6-(3-methyl-7,8-dihydro-1,6-naphthyridin-6(5H)-yl)-N-((3-methylpyridin-4-yl)methyl)nicotinamide] | 88% | 143 nM |  | 

Continued, in another order:

Emax at 30 µM | EC50 [1] | Compound | Emax (CHO-K1) | EC50 (Human M4 EC50, positive allosteric modulator activity)
 | 1220 nM | Cn1nccc1Nc1cnc2c(c1)CN(c1nc(Cl)nc3c1COC3)CC2 [compound 288, 6-(2-chloro-5,7-dihydrofuro[3,4-d]pyrimidin-4-yl)-N-(1-methyl-1H-pyrazol-5-yl)-5,6,7,8-tetrahydro-1,6-naphthyridin-3-amine] |  | 
91% | 611 nM | Cc1cc(C#N)nnc1N1Cc2cc(N3CCOCC3)cnc2C(C)C1 (single isomer, unassigned) [Example 407, 5-methyl-6-(8-methyl-3-morpholino-7,8-dihydro-1,6-naphthyridin-6(5H)-yl)pyridazine-3-carbonitrile] |  | 
74% | 391 nM | Cc1cnccc1Nc1cnc2c(c1)CN(c1nnc(C#N)c(C)c1C)CC2 [Example 618, 4,5-dimethyl-6-(3-((3-methylpyridin-4-yl)amino)-7,8-dihydro-1,6-naphthyridin-6(5)-yl)pyridazine-3-carbonitrile] |  | 
 | 991 nM | Fc1ccccc1Oc1cnc2c(c1)CN(c1nc(Cl)nc3c1COC3)CC2 [compound 290, 2-chloro-4-(3-(2-fluorophenoxy)-7,8-dihydro-1,6-naphthyridin-6(5H)-yl)-5,7-dihydrofuro[3,4-d]pyrimidine] |  | 
78% | 16 nM | Cc1cc(C(=O)N2CC(CO)C2)nnc1N1CCc2ncc(N3CCCn4nccc43)cc2C1 [Example 554, (6-(3-(6,7-dihydropyrazolo[1,5-a]pyrimidin-4(5H)-yl)-7,8-dihydro-1,6-naphthyridin-6(5H)-yl)-5-methylpyridazin-3-yl)(3-(hydroxymethyl)azetidin-1-yl)methanone] |  | 
98% | 129 nM | Cc1c(C(=O)NCc2ccncc2)nnc(N2CCc3ncc(C(F)(F)F)cc3C2)c1C [Example 467, 4,5-dimethyl-N-(pyridin-4-ylmethyl)-6-(3-(trifluoromethyl)-7,8-dihydro-1,6-naphthyridin-6(5H)-yl)pyridazine-3-carboxamide] |  | 
82% | 320 nM | Cc1ccc(Oc2cnc3c(c2)CN(c2nnc(C#N)c(C)c2C)CC3)c(F)c1 [Example 358, 6-(3-(2-fluoro-4-methylphenoxy)-7,8-dihydro-1,6-naphthyridin-6(5H)-yl)-4,5-dimethylpyridazine-3-carbonitrile] |  | 
71% | 246 nM | Cc1c(C#N)nnc(N2CCc3ncc(Oc4ccc(F)cc4)cc3C2)c1C [Example 300, 6-(3-(4-fluorophenoxy)-7,8-dihydro-1,6-naphthyridin-6(5H)-yl)-4,5-dimethylpyridazine-3-carbonitrile] |  | 
89% | 3800 nM | Cc1cc(C#N)nnc1N1CCc2ncc(N3CCN(C)C(=O)C3)cc2C1 [Example 410, 5-methyl-6-(3-(4-methyl-3-oxopiperazin-1-yl)-7,8-dihydro-1,6-naphthyridin-6(5H)-yl)pyridazine-3-carbonitrile] |  | 
85% | 318 nM | [2H]C1([2H])Cc2ncc(-c3c(C)noc3C)cc2C([2H])([2H])N1c1nnc(C#N)cc1C [Example 621, 6-(3-(3,5-dimethylisoxazol-4-yl)-7,8-dihydro-1,6-naphthyridin-6(5H)-yl-5,5,7,7-d4)-5-methylpyridazine-3-carbonitrile] |  | 
75% | 4350 nM | COc1nc(N2CCc3ncc(C(F)(F)F)cc3C2)c(C)cc1C#N [Example 371, 2-methoxy-5-methyl-6-(3-(trifluoromethyl)-7,8-dihydro-1,6-naphthyridin-6(5H)-yl)nicotinonitrile] |  | 

Reference: patent publication US20250230155A1 (Vanderbilt University, priority 2021, published 2025)
